Data on 33 molecules can be found in US20250346593A1, “IMIDAZO(1,2-1)PYRIDINE DERIVATIVES AS RIPK2 INHIBITORS” (Interline Therapeutics, Inc., priority 2022, published 2025).

Assay [1] has as its system NF-κB pathway (SEAP) in THP1-Dual cells. The assay can be described thus: THP-1 Dual cell SEAP assay (L18-MDP stimulated). The class given is cell-based. The following applies: Homo sapiens, THP1-Dual, read-out: NFkB THP1 IC50.
In assay [2] the target is GST-RIPK2 fusion protein (human RIPK2 amino acids 1-310) (Homo sapiens (Human), UniProt O43353). Kind of assay: RIPK2 binding competition assay (TR-FRET, Tracer 199). In general terms: Time-resolved FRET reads energy transfer from a long-lived donor to a nearby acceptor.
Sequence of GST-RIPK2 fusion protein (human RIPK2 amino acids 1-310) (O43353 1-310): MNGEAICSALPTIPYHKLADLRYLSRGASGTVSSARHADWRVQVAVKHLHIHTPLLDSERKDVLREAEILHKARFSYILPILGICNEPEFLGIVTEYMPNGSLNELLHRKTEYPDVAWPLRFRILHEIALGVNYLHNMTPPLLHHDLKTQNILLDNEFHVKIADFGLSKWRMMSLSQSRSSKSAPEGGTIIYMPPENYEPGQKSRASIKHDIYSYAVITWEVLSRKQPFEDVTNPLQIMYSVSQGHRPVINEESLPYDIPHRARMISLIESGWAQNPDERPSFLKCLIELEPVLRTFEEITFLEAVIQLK
Where [3] appears, read: read-out: RIPK2 IC50, RIPK2 binding competition assay.

Structures are written as SMILES. pIC50: −log10 of the molar value. Like-named read-outs stand apart in the source and are kept apart here.

With `COc1cc2ncc(-c3cc(N)nc(C(F)(F)F)c3)n2cc1S(=O)(=O)C(C)(C)C` [Example 6, 4-(6-(tert-butylsulfonyl)-7-methoxyimidazo[1,2-a]pyridin-3-yl)-6-(trifluoromethyl) pyridin-2-amine], the pIC50 in assay [1] is below 6.00; in assay [2], 7.70 to 8.60.
Consider `COc1cc2ncc(-c3cc(N)c(=O)n(C)c3)n2cc1S(=O)(=O)C(C)(C)C` [Example 7, 3-amino-5-(6-(tert-butylsulfonyl)-7-methoxyimidazo[1,2-a]pyridin-3-yl)-1-methylpyridin-2(1H)-one], for which the pIC50 was 6.00 to 6.60 in assay [1] and 7.70 to 8.60 in assay [2].
As to `COc1cc2ncc(-c3cc(Cl)nc(Cl)c3)n2cc1S(=O)(=O)C(C)(C)C` [Example 8, 6-(tert-butylsulfonyl)-3-(2,6-dichloropyridin-4-yl)-7-methoxyimidazo[1,2-a]pyridine], the pIC50 in assay [1] was below 6.00; in assay [2] (setting [3]) it was below 7.70.
For `COc1cc2ncc(-c3ccc(F)nc3F)n2cc1S(=O)(=O)C(C)(C)C` [Example 9, 6-(tert-butylsulfonyl)-3-(2,6-difluoropyridin-3-yl)-7-methoxyimidazo[1,2-a]pyridine], in that order: below 6.00 and below 7.70.
As to `CCCS(=O)(=O)Nc1cc(-c2cnc3cc(OC)c(S(=O)(=O)C(C)(C)C)cn23)cc(OC)c1OC` [Example 10, N-(5-(6-(tert-butylsulfonyl)-7-methoxyimidazo[1,2-a]pyridin-3-yl)-2,3-dimethoxyphenyl) propane-1-sulfonamide], the results for the negative-log IC50 (pIC50) in assay [1] and in assay [2] (setting [3]) were above 7.30 and above 9.00, respectively.
As to `COc1cc2ncc(-c3cc(F)cc([N+](=O)[O-])c3)n2cc1S(=O)(=O)C(C)(C)C` [Example 13, 3-(3-fluoro-5-nitrophenyl)-7-methoxy-6-(2-methylpropane-2-sulfonyl)imidazo[1,2-a]pyridine], the negative-log IC50 (pIC50) in assay [1] is below 6.00; in assay [2], below 7.70.
As to `COc1cc2ncc(-c3ccc(N)nc3F)n2cc1S(=O)(=O)C(C)(C)C` [Example 14, 5-(6-(tert-butylsulfonyl)-7-methoxyimidazo[1,2-a]pyridin-3-yl)-6-fluoropyridin-2-amine], the pIC50 in assay [1] is below 6.00; in assay [2] (setting [3]), below 7.70.
Regarding `COc1cc2ncc(-c3ccc(N)nc3)n2cc1S(=O)(=O)C(C)(C)C` [Example 15, 5-(6-(tert-butylsulfonyl)-7-methoxyimidazo[1,2-a]pyridin-3-yl)pyridin-2-amine], the values for the pIC50 in assay [1] and in assay [2] (setting [3]) were below 6.00 and below 7.70, respectively.
`COc1cc2ncc(-c3ccc(N(C)C)nc3)n2cc1S(=O)(=O)C(C)(C)C` [Example 16, 5-(6-(tert-butylsulfonyl)-7-methoxyimidazo[1,2-a]pyridin-3-yl)-N,N-dimethylpyridin-2-amine]: the values for the pIC50 in assay [1] and in assay [2] (setting [3]) were below 6.00 and below 7.70, respectively.
Regarding `COc1cc2ncc(-c3cnc(N)c(OC)c3)n2cc1S(=O)(=O)C(C)(C)C` [Example 17, 5-(6-(tert-butylsulfonyl)-7-methoxyimidazo[1,2-a]pyridin-3-yl)-3-methoxypyridin-2-amine], the pIC50 was below 6.00 in assay [1] and below 7.70 in assay [2] (setting [3]).
For `COc1cc2ncc(-c3ccc(N)cc3)n2cc1S(=O)(=O)C(C)(C)C` [Example 18, 4-(6-(tert-butylsulfonyl)-7-methoxyimidazo[1,2-a]pyridin-3-yl)aniline], in that order: below 6.00 and below 7.70.
`COc1cc2ncc(-c3cnc(N)c(C(F)(F)F)c3)n2cc1S(=O)(=O)C(C)(C)C` [Example 19, 5-(6-(tert-butylsulfonyl)-7-methoxyimidazo[1,2-a]pyridin-3-yl)-3-(trifluoromethyl)pyridin-2-amine]: the pIC50 in assay [1] is below 6.00; in assay [2] (setting [3]), below 7.70.
In the case of `COc1cc2ncc(-c3ccc(N)c(F)c3)n2cc1S(=O)(=O)C(C)(C)C` [Example 20, 4-(6-(tert-butylsulfonyl)-7-methoxyimidazo[1,2-a]pyridin-3-yl)-2-fluoroaniline], the negative logarithm of the IC50 (pIC50) is 6.00 to 6.60 in assay [1] and 7.70 to 8.60 in assay [2].
Consider `COc1cc2ncc(-c3cnc(N)cc3F)n2cc1S(=O)(=O)C(C)(C)C` [Example 21, 5-(6-(tert-butylsulfonyl)-7-methoxyimidazo[1,2-a]pyridin-3-yl)-4-fluoropyridin-2-amine], for which the pIC50 in assay [1] was below 6.00; in assay [2] (setting [3]), below 7.70.
On to `COc1cc2ncc(-c3cnc(N)c(Cl)c3)n2cc1S(=O)(=O)C(C)(C)C` [Example 22, 5-(6-(tert-butylsulfonyl)-7-methoxyimidazo[1,2-a]pyridin-3-yl)-3-chloropyridin-2-amine], for which the negative logarithm of the IC50 (pIC50) was below 6.00 in assay [1] and 7.70 to 8.60 in assay [2].
With `COc1cc2ncc(-c3cnc(N)c(C#N)c3)n2cc1S(=O)(=O)C(C)(C)C` [Example 23, 2-amino-5-(6-(tert-butylsulfonyl)-7-methoxyimidazo[1,2-a]pyridin-3-yl)nicotinonitrile], the pIC50 in assay [1] is below 6.00; in assay [2] (setting [3]) it was below 7.70.
On to `COc1cc(N)cc(-c2cnn3ccc(S(=O)(=O)C(C)(C)C)cc23)c1` [Example 24, 3-(5-(tert-butylsulfonyl)pyrazolo [1,5-a]pyridin-3-yl)-5-methoxyaniline], for which the pIC50 in assay [1] was below 6.00; in assay [2] (setting [3]), below 7.70.
For the molecule `COc1ccc(-c2cnn3ccc(S(=O)(=O)C(C)(C)C)cc23)cc1N` [Example 25, 5-(5-(tert-butylsulfonyl)pyrazolo [1,5-a]pyridin-3-yl)-2-methoxyaniline], the values for the pIC50 in assay [1] and in assay [2] (setting [3]) were below 6.00 and below 7.70, respectively.
As for `CC(C)(C)S(=O)(=O)c1ccn2ncc(-c3ccc(N)nc3)c2c1` [Example 26, 5-(5-(tert-butylsulfonyl)pyrazolo [1,5-a]pyridin-3-yl)pyridin-2-amine], the pIC50 was below 6.00 in assay [1] and below 7.70 in assay [2] (setting [3]).
Take `COc1cc2ncc(-c3ccc(F)c(N)c3F)n2cc1S(=O)(=O)C(C)(C)C` [Example 27, 3-(6-(tert-butylsulfonyl)-7-methoxyimidazo[1,2-a]pyridin-3-yl)-2,6-difluoroaniline]: the negative logarithm of the IC50 (pIC50) in assay [1] is below 6.00; in assay [2], 7.70 to 8.60.
On to `COc1cc2ncc(-c3ccc(OC)c(N)c3F)n2cc1S(=O)(=O)C(C)(C)C` [Example 28, 3-(6-(tert-butylsulfonyl)-7-methoxyimidazo[1,2-a]pyridin-3-yl)-2-fluoro-6-methoxyaniline], for which the pIC50 was below 6.00 in assay [1] and 7.70 to 8.60 in assay [2].
As to `COc1cc2ncc(-c3cccc(N)c3F)n2cc1S(=O)(=O)C(C)(C)C` [Example 29, 3-(6-(tert-butylsulfonyl)-7-methoxyimidazo[1,2-a]pyridin-3-yl)-2-fluoroaniline], the negative-log IC50 (pIC50) is below 6.00 in assay [1] and 7.70 to 8.60 in assay [2].
Turning to `COc1cc2ncc(-c3cncc(N)c3)n2cc1S(=O)(=O)C(C)(C)C` [Example 30, 5-(6-(tert-butylsulfonyl)-7-methoxyimidazo[1,2-a]pyridin-3-yl)pyridin-3-amine], the pIC50 is below 6.00 in assay [1] and below 7.70 in assay [2] (setting [3]).
For `COc1cc2ncc(-c3cnc(N)c(N)c3)n2cc1S(=O)(=O)C(C)(C)C` [Example 31, 5-(6-(tert-butylsulfonyl)-7-methoxyimidazo[1,2-a]pyridin-3-yl)pyridine-2,3-diamine], in that order: below 6.00 and below 7.70.
As to `COc1cc2ncc(-c3cc(N)ccc3F)n2cc1S(=O)(=O)C(C)(C)C` [Example 32, 3-(6-(tert-butylsulfonyl)-7-methoxyimidazo[1,2-a]pyridin-3-yl)-4-fluoroaniline], the pIC50 is below 6.00 in assay [1] and below 7.70 in assay [2] (setting [3]).
For the molecule `CNc1cncc(-c2cnc3cc(OC)c(S(=O)(=O)C(C)(C)C)cn23)c1` [Example 34, 5-(6-(tert-butylsulfonyl)-7-methoxyimidazo[1,2-a]pyridin-3-yl)-N-methylpyridin-3-amine], the pIC50 in assay [1] is below 6.00; in assay [2] (setting [3]), below 7.70.
As for `COc1cc2ncc(-c3cc(N)c(C)c(F)c3)n2cc1S(=O)(=O)C(C)(C)C` [Example 35, 5-(6-(tert-butylsulfonyl)-7-methoxyimidazo[1,2-a]pyridin-3-yl)-3-fluoro-2-methylaniline], the values for the pIC50 in assay [1] and in assay [2] (setting [3]) were below 6.00 and below 7.70, respectively.
On to `COc1cc2ncc(-c3cccc(N)c3)n2cc1S(=O)(=O)C(C)(C)C` [Example 36, 3-(6-(tert-butylsulfonyl)-7-methoxyimidazo[1,2-a]pyridin-3-yl)aniline], for which the pIC50 in assay [1] was below 6.00; in assay [2] (setting [3]), below 7.70.
For `COc1cc2ncc(-c3cc(N)cc(S(C)(=O)=O)c3)n2cc1S(=O)(=O)C(C)(C)C` [Example 37, 3-(6-(tert-butylsulfonyl)-7-methoxyimidazo[1,2-a]pyridin-3-yl)-5-(methylsulfonyl)aniline], in that order: below 6.00 and below 7.70.
Turning to `COc1cc2ncc(-c3cc(F)cc(N)c3F)n2cc1S(=O)(=O)C(C)(C)C` [Example 38, 3-(6-(tert-butylsulfonyl)-7-methoxyimidazo[1,2-a]pyridin-3-yl)-2,5-difluoroaniline], the pIC50 was 6.60 to 7.30 in assay [1] and 8.60 to 9.00 in assay [2].
`COc1cc2ncc(-c3ccc(OC(F)F)c(N)c3)n2cc1S(=O)(=O)C(C)(C)C` [Example 39, 5-(6-(tert-butylsulfonyl)-7-methoxyimidazo[1,2-a]pyridin-3-yl)-2-(difluoromethoxy)aniline]: the values for the pIC50 in assay [1] and in assay [2] were 6.60 to 7.30 and 7.70 to 8.60, respectively.
For `COc1cc2ncc(-c3cc(F)c(N)c(N)c3F)n2cc1S(=O)(=O)C(C)(C)C` [Example 40, 4-(6-(tert-butylsulfonyl)-7-methoxyimidazo[1,2-a]pyridin-3-yl)-3,6-difluorobenzene-1,2-diamine], in that order: 6.00 to 6.60 and 7.70 to 8.60.
`COc1cc2ncc(-c3cc(N)cc(C#N)c3)n2cc1S(=O)(=O)C(C)(C)C` [Example 41, 3-amino-5-(6-(tert-butylsulfonyl)-7-methoxyimidazo[1,2-a]pyridin-3-yl)benzonitrile]: the figures for the pIC50 in assay [1] and in assay [2] were 6.60 to 7.30 and 7.70 to 8.60, respectively.

A word on the pIC50: it is the IC50 on a negative log10 scale, so that one unit is a factor of ten.
